Calls of active or inactive are those of the source. The calls are words filed in the database; no cut-off is given here.
Columns and labels:
[1] = Activation of LPS-induced NO production in BCG-treated ICR mouse macrophages at 50 to 1000 mg/kg/day, po administered for 3 days before BCG immunization measured after 24 hrs of LPS challenge by Griess reagent method; assay type: functional, organism-based; conditions: Macrophage
Macrophage [2] = test: Activation of NO production in BCG-treated ICR mouse macrophages at 1 mg/kg/day, po administered for 3 days before BCG immunization measured after 72 hrs of LPS challenge by Griess reagent method; assay type: functional, organism-based
[3] = Cytotoxicity against LPS-stimulated ICR mouse macrophages assessed as cell viability at 1 mg/kg/day after 72 hrs of LPS challenge by MTT assay; assay type: organism-based, Macrophage; conditions: read-out: Activity
[4] = Cytotoxicity against ICR mouse macrophages assessed as cell viability at 1 mg/kg/day after 72 hrs by MTT assay; assay type: organism-based, Macrophage; conditions: read-out: Activity
Macrophage [5] = test: Increase in LPS-induced NO production in ICR mouse at 1 mg/kg/day, po 0 to 2 days administered after BCG immunization measured after 24 hrs of LPS challenge by Griess reagent method; assay type: functional, organism-based
Macrophage [6] = test: Increase in LPS-induced NO production in ICR mouse at 1 mg/kg/day, po 0 to 2 days administered before BCG immunization measured after 24 hrs of LPS challenge by Griess reagent method; assay type: functional, organism-based
Mus musculus [7] = test: Antiinflammatory activity against po dosed ICR mouse assessed as number of peritoneal exudate cells; assay type: functional
[8] = Activation of LPS-induced NO production in BCG-treated ICR mouse macrophages at 5 mg/kg/day, po administered for 3 days before BCG immunization measured after 24 hrs of LPS challenge by Griess reagent method; assay type: functional, organism-based; conditions: Macrophage
[9] = Activation of LPS-induced NO production in BCG-treated ICR mouse macrophages at 1 mg/kg/day, po administered for 3 days before BCG immunization measured after 72 hrs of LPS challenge by Griess reagent method; assay type: functional, organism-based; conditions: Macrophage
Mus musculus [10] = test: Toxicity in ICR mouse assessed as occurrence of diarrhea at 5 mg/kg/day, po; assay type: organism-based; design: route oral; conditions: in vivo
Macrophage [11] = test: […] of LPS-induced NO production in BCG-treated ICR mouse macrophages at 1 mg/kg/day, po administered for 3 days before BCG immunization measured after 24 hrs of LPS challenge by Griess reagent method; assay type: functional; design: scale not given: the % may be the effect or the level left

SMILES	Activity [1]	Activity (Macrophage [2])	viability at 72 h [3] [%]	viability at 72 h [4] [%]	Activity (Macrophage [5])	Activity (Macrophage [6])	Activity (Mus musculus [7])	Activity [8]	Activity [9]	Activity (Mus musculus [10])	Activity (Macrophage [11]) [%]
O=C(C[C@@H]1NCCC[C@H]1O)Cn1cnc2ccccc2c1=O [FEBRIFUGINE]	Dose-dependent effect	inactive	10	> 90	Active	Active	378000000	inactive	Active	Not Active	
C[C@@H]1CC[C@H]2[C@@H](C)C(=O)O[C@@H]3O[C@@]4(C)CC[C@@H]1[C@]32OO4 [ARTEMISININ]											23

— ChEMBL document CHEMBL1150901, “Enhancement of NO production in activated macrophages in vivo by an antimalarial crude drug, Dichroa febrifuga” (J Nat Prod, 1998)
